Source: patent publication US20160102317A1, “PLANTS HAVING INCREASED TOLERANCE TO HERBICIDES” (BASF SE, priority 2013, published 2016)

How the values were obtained:
[1] = target: T1, Arabidopsis HPPD (SEQ ID NO:53), wild-type (Arabidopsis thaliana, UniProt P93836); experiment: HPPD activity assay (HGA by HPLC), wild-type enzyme characterization; type: biochemical; conditions: Arabidopsis HPPD
T1 construct: His6 (N); made in house; host or cells: E. coli BL21 (DE3)
T1 sequence (P93836 1-445): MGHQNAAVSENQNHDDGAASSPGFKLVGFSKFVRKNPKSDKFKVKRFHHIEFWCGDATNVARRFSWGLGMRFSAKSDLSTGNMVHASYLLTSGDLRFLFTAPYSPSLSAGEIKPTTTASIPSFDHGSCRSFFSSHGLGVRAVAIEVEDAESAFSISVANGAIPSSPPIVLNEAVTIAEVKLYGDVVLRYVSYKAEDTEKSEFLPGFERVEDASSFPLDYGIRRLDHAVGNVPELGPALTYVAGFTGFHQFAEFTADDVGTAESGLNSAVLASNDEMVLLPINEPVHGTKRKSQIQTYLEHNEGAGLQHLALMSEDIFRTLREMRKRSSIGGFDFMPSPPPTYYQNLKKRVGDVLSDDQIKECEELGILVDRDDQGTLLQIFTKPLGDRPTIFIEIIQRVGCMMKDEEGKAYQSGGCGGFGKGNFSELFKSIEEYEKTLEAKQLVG
Method: (§1) HPPD produces homogentisic acid and CO2 from 4-hydroxyphenylpyruvate (4-HPP) and 02. The activity assay for HPPD is based on the analysis of homogentisic acid by reversed phase HPLC. The assay mixture can contain 150 mM potassium phosphate buffer pH 7.0, 50 mM L-ascorbic acid, 100 μM Catalase (Sigma-Aldrich), 1 μM FeSO4 and 0.2 units of purified HPPD enzyme in a total volume of 505 μl. 1 unit is defined as the amount of enzyme that is required to produce 1 nmol of HGA per minute at 20° C.
(§2) After a preincubation of 30 min the reaction is started by adding 4-HPP to a final concentration of 0.05 mM. The reaction is allowed to proceed for 45 min at room temperature. The reaction is stopped by the addition of 50 μl of 4.5 M phosphoric acid. The sample is filtered using a […] pore size PVDF filtration device.
(§3) 5 μl of the cleared sample is analyzed on an UPLC HSS T3 column (particle size 1.8 μm, dimensions 2.1×50 mm; Waters) by isocratic elution using 90% 20 mM NaH2PO4 pH 2.2, 10% methanol (v/v).
(§4) HGA is detected electrochemically at 750 mV (mode: DC; polarity: positive) and quantified by integrating peak areas (Empower software; Waters).
(§5) Inhibitors are dissolved in DMSO (dimethylsulfoxide) to a concentration of 0.5 mM. From this stock solution serial five-fold dilutions are prepared in DMSO, which are used in the assay. The respective inhibitor solution accounts for 1% of the assay volume. […] Activities are normalized by setting the uninhibited enzyme activity to 100%. IC50 values are calculated using non-linear regression.
(§6) Using methods which are described in the above examples or well known in the art, purified, recombinant wild-type HPPD enzymes are characterized with respect to their kinetic properties and sensitivity towards HPPD inhibiting herbicides. Apparent michaelis constants (Km) and maximal reaction velocities (Vmax) are calculated by non-linear regression with the software GraphPad Prism 5 (GraphPad Software, La Jolla, USA) using a substrate inhibition model. […] Weighted means (by standard error) of Km and IC50 values are calculated from at least three independent experiments.
(§7) Field performance of the HPPD enzyme, which is used as a herbicide tolerance trait, may depend not only on its lack of sensitivity towards HPPD inhibiting herbicides but also on its activity. To assess the potential performance of a herbicide tolerance trait a tolerance index (TI) is calculated using the following formula: […]
(§8) Easy comparison and ranking of each trait is enabled by normalizing tolerance indexes on Arabidopsis wild-type HPPD.

[2] = target: T2, Hordeum HPPD (SEQ ID NO:2), wild-type (Hordeum vulgare, UniProt O48604, A164G/R146V/R147D/R148G); experiment: as above; type: biochemical; conditions: Hordeum HPPD
T2 construct: His (N); made in house; host or cells: E. coli BL21 (DE3)
Method: as §1, §2, §3, §4, §5, §6, §7, §8

[3] = apparent Km, read-out: Km [μM] (4-HPP)
[4] = apparent kcat from Vmax, substrate 4-HPP

T2 sequence (O48604 whole entry R146V/R147D/R148G/A164G): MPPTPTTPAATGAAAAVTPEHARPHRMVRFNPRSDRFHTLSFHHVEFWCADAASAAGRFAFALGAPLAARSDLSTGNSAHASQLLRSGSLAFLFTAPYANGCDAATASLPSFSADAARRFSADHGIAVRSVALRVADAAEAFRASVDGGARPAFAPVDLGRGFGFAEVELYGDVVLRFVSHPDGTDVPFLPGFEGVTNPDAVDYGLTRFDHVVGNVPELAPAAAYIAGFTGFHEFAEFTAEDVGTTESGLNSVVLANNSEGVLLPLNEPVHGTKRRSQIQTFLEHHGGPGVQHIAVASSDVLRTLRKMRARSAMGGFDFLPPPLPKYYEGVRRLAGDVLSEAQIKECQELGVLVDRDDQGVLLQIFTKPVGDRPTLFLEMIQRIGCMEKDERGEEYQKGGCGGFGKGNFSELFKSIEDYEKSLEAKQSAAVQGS

O=C(O)C(=O)Cc1ccc(O)cc1 [Inhibitor 4-HPP, 4-hydroxyphenylpyruvate, reference compound]
Km [1, 3]: 13 µM | kcat [1, 4]: 12.9 S^−1 | Km [2, 3]: 26 µM | kcat [2, 4]: 11.5 S^−1
